Like-named read-outs stand apart in the source and are kept apart here. Some results are limits rather than exact numbers.

This is an account of results in patent US8735388B2, “Heterocyclic compounds with affinity to muscarinic receptors” (Abbvie B. V. A., priority 2007, dated 2014).

Data set [1] deals with T1, Muscarine M4 (GPCR-A-MA-ACH M4) (Homo sapiens, UniProt P08173).
T1 construct: expressed in transfected cells; host or cells: CHO cells
T1 sequence (P08173 1-479): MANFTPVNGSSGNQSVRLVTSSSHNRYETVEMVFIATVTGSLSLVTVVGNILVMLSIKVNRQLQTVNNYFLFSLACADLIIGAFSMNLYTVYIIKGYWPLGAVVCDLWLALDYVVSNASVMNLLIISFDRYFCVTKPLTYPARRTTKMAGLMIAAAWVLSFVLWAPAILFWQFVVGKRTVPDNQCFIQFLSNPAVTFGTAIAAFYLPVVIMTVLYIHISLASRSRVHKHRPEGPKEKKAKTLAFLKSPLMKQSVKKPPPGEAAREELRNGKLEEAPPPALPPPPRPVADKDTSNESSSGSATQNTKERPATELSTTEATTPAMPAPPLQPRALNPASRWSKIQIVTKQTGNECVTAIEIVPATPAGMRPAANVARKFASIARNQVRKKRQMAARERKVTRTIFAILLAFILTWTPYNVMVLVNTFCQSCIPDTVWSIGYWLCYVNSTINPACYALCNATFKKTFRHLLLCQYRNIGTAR
Briefly: Muscarine M4 receptor binding, 3H-4DAMP. The settings on record: human M4, CHO cells, ligand 0.2 nM, 60 min/22° C., read-out: RB Musc. M4 3H-DAMP pKi (converted). The method, boiled down:
(§1)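 Human M1 ([3H]-pirenzepine), M3, and M4 ([3H]-4DAMP or [3H]-oxotremorine) receptor preparations incubated with radioligand and compound, first at 10 μM, then at 10-fold lower concentrations if inhibition exceeded 40%. Bound ligand separated by glass-fibre filtration and counted by scintillation. IC50 from Hill fit, converted to Ki via Cheng-Prusoff, reported as pKi.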

Data set [2] addresses T2, Muscarine M1 (GPCR-A-MA-ACH M1) (Homo sapiens, UniProt P11229).
T2 construct: expressed in transfected cells; host or cells: CHO cells
T2 sequence (P11229 1-460): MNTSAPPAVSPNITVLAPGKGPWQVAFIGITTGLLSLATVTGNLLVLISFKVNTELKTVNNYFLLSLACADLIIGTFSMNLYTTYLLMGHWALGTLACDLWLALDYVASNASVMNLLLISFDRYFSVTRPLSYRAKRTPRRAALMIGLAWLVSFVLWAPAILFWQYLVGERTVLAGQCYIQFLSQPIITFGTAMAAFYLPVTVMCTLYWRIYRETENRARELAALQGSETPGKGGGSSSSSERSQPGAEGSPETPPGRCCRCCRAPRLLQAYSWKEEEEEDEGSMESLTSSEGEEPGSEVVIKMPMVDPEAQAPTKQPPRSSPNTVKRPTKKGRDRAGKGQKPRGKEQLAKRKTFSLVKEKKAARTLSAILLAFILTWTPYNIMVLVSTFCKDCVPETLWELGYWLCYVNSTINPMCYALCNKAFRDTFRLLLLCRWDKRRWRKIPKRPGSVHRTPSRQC
Description: Muscarine M1 receptor binding, 3H-Pirenzepine. The settings on record: human M1, CHO cells, ligand 2 nM, 60 min/22° C., read-out: RB Musc. M1 3H-Pirenzepine pKi (converted). The method, boiled down: as §1

In data set [3] the target is T1, Muscarine M4 (GPCR-A-MA-ACH M4). Description: Muscarine M4 receptor binding, 3H-Oxotremorine. The procedure, abridged:
as §1

Data set [4] shares this target. Description: Muscarine M4 cell-based functional assay (CHO cells, Ca2+ - Aequorin luminescence). The method, boiled down:
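CHO cells expressing human M4 were exposed to compound, with Ca2+ response read by aequorin luminescence. Compounds were first tested at 1 μM, then at 10-fold lower concentrations if active; stimulation or inhibition was relative to the reference agonist. EC50/IC50 came from Hill-equation fits.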

The target in data set [5] is T2, Muscarine M1 (GPCR-A-MA-ACH M1). Briefly: Muscarine M1 cell-based functional assay (CHO cells, Ca2+ - FLIPR Fluorimetry). The settings on record: read-out: Cell funct. Musc. M1 Agonism pEC50 (converted).
In data set [6] the target is T3, Muscarine M3 (GPCR-A-MA-ACH M3) (Homo sapiens, UniProt P20309).
T3 construct: expressed in transfected cells; host or cells: CHO cells
T3 sequence (P20309 whole entry): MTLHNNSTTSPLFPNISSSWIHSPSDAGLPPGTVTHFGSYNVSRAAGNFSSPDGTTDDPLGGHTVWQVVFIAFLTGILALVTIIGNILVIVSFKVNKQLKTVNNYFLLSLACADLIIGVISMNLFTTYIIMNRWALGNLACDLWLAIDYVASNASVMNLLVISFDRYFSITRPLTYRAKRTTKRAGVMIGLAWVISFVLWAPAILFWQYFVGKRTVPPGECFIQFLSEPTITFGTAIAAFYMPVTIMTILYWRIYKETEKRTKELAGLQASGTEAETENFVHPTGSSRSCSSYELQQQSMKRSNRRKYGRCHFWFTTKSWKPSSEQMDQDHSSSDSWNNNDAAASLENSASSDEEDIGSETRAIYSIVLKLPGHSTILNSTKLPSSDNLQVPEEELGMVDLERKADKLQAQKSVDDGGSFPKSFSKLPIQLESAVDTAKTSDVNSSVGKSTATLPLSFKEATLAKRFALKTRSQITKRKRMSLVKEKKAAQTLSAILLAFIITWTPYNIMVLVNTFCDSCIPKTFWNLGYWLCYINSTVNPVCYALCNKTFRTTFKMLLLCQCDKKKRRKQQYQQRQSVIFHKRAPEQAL
Description: Muscarine M3 receptor binding.

In data set [7] the target is T4, Muscarine M3 (GPCR-A-MA-ACH M3) (Cavia porcellus, UniProt H0W1Z3).
T4 construct: from tissue; host or cells: guinea pig ileum
T4 sequence (H0W1Z3 1-590): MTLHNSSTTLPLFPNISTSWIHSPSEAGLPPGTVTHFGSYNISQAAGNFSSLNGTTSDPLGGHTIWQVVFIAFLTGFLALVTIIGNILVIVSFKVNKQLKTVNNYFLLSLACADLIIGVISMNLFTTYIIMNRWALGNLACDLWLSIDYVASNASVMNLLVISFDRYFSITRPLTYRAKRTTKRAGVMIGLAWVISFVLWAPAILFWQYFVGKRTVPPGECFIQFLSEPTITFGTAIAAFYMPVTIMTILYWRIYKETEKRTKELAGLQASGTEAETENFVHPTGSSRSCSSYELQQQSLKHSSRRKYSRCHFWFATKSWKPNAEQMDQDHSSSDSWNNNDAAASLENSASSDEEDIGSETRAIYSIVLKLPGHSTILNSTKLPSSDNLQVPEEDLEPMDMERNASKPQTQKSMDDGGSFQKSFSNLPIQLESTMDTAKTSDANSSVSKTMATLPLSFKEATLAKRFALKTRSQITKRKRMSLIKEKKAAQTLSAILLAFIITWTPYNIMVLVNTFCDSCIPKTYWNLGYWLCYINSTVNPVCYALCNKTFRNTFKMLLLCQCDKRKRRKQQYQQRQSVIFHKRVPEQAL
Briefly: Muscarine M3 functional assay, isolated organ (ileum), agonist and antagonist mode. Particulars: for EC50: read-out: Cell funct. Musc. M3 Agonism pEC50 (converted). The arrangement: species or system Guinea Pig.

The target in data set [8] is T5, Muscarine M2 (GPCR-A-MA-ACH M2) (Cavia porcellus, UniProt H0VRN8).
T5 construct: from tissue; host or cells: guinea pig left atrium (electrically paced)
T5 sequence (H0VRN8 1-466): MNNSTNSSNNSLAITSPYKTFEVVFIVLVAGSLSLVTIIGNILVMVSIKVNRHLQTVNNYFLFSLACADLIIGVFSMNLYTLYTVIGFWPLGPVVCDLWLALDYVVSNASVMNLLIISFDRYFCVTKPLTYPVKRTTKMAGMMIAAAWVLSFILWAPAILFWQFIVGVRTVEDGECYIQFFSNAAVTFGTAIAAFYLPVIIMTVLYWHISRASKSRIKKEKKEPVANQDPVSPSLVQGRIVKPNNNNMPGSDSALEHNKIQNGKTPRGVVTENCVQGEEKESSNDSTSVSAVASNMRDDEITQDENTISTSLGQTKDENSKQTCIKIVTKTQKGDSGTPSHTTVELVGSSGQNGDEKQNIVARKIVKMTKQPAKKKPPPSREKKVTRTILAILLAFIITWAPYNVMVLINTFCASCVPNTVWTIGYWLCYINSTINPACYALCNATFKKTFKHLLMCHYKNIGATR
Briefly: Muscarine M2 functional assay, isolated organ (left atrium, electrically paced), agonist and antagonist mode. On the set-up: species or system Guinea Pig. The settings on record: for EC50: read-out: Cell funct. Musc. M2 Agonism pEC50 (converted).

In data set [9] the target is T6, Muscarine M2 (GPCR-A-MA-ACH M2) (Homo sapiens, UniProt P08172).
T6 construct: expressed in transfected cells; host or cells: CHO cells
T6 sequence (P08172 1-466): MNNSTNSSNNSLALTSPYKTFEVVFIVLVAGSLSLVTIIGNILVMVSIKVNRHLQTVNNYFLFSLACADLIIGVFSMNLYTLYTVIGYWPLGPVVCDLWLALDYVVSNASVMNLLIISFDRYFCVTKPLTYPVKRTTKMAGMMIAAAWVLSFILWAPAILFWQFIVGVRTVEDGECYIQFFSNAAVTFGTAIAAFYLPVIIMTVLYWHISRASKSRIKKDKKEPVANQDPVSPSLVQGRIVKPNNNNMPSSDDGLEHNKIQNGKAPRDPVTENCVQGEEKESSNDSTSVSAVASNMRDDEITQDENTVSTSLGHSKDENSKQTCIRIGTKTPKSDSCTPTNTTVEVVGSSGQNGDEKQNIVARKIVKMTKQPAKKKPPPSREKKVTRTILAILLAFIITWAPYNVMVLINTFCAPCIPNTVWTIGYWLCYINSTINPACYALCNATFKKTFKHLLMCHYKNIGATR
Briefly: Muscarine M2 receptor binding.

The mark [10] stands for this setting: human M4, CHO cells, receptor binding, ligand 6 nM, 30 min/25° C., read-out: RB Musc. M4 3H-Oxotremorine pKi (converted).
Setting [11] is: human M4, CHO cells, agonist mode, reference agonist oxotremorine, read-out: Cell funct. Musc. M4 Agonism pEC50 (converted).
Where [12] appears, read: human M1, CHO cells, agonist mode, reference agonist acetylcholine.
[13] abbreviates: human M3, CHO cells, receptor binding.
Setting [14] is: read-out: Cell funct. Musc. M2 Antagonism pA2 (converted).
Where [15] appears, read: human M2, CHO cells, receptor binding.

`CSc1c[nH]nc1C1=CCCN(C)C1` [Compound 22A, 3-(4-Methylsulfanyl-1H-pyrazol-3-yl)-1,2,5,6-tetrahydro-1-methylpyridine] had a melting point of 131.5 °C. The Ki in [1] was 0.398 µM. Moreover, in [2], the Ki was 1.58 µM. In addition, the Ki in data set [3] (setting [10]) is 0.251 µM. The EC50 in data set [4] (setting [11]) was more than 10 µM.

On to `CCSc1c[nH]nc1C1=CCCN(C)C1` [Compound 22D, 3-(4-Ethylsulfanyl-1H-pyrazol-3-yl)-1,2,5,6-tetrahydro-1-methylpyridine], for which the melting point was 95 to 97 °C. Moreover, the Ki in data set [1] was 0.398 µM. Further, the Ki in data set [2] is 1.58 µM. Moreover, the Ki in [3] (setting [10]) is 0.316 µM. In data set [4] (setting [11]), the EC50 is more than 10 µM.

Take `CCCSc1c[nH]nc1C1=CCCN(C)C1` [Compound 22E, 3-(4-Propylsulfanyl-1H-pyrazol-3-yl)-1,2,5,6-tetrahydro-1-methylpyridine]: the melting point is 111 °C. Further, the Ki in data set [1] was 0.316 µM. Moreover, the Ki in [2] was 0.398 µM. The Ki in data set [3] (setting [10]) was 0.1 µM. The EC50 in [4] (setting [11]) is more than 10 µM.

As for `CCCCSc1c[nH]nc1C1=CCCN(C)C1` [Compound 22F, 3-(4-Butylsulfanyl-1H-pyrazol-3-yl)-1,2,5,6-tetrahydro-1-methylpyridine], the melting point lay within 120 to 121 °C. In addition, in [1], the Ki is 0.0398 µM. In addition, the Ki in data set [2] is 0.316 µM. Further, the Ki in [3] (setting [10]) was 0.0631 µM. Moreover, the EC50 in data set [5] (setting [12]) was 0.2 µM. For the same compound, the EC50 in data set [4] (setting [11]) was 0.126 µM.

For `CCCCSc1c[nH]nc1C1CN2CCC1CC2` (stereo not drawn) [Compound 49A, 3-(4-Butylsulfanyl-1H-pyrazol-3-yl)-1-azabicyclo[2.2.2]octane], the melting point lay in the range of 162 to 164 °C. Also, the Ki in [1] was 0.0158 µM. The Ki in data set [2] was 0.126 µM. In [3], the Ki was 0.0251 µM. Moreover, the EC50 in data set [5] is 0.01 µM. The same compound gave an EC50 in [4] of 0.0398 µM.

In the case of `CCCCCSc1c[nH]nc1C1CN2CCC1CC2` (stereo not drawn) [Compound 49B, 3-(4-Pentylsulfanyl-1H-pyrazol-3-yl)-1-azabicyclo[2.2.2]octane], the melting point lay within 142 to 145 °C. In data set [6], this compound showed a Ki of 0.0631 µM. The Ki in [1] is 0.0251 µM. For the same compound, the Ki in data set [2] was 0.158 µM. Moreover, in data set [7], the Kb was more than 1 µM and the EC50 was more than 1 µM. For the same compound, the Ki in data set [3] was 0.00794 µM. In data set [8], the Kb is more than 1 µM and the EC50 is more than 1 µM. The EC50 in [5] was 0.01 µM. This compound also gave a Ki in [9] of 0.631 µM. In data set [4], this compound gave an EC50 of 0.00631 µM.

In the case of `CSc1c[nH]nc1C1CN2CCC1CC2` (stereo not drawn) [Compound 49C, 3-(4-Methylsulfanyl-1H-pyrazol-3-yl)-1-azabicyclo[2.2.2]octane], the melting point was in the range of 145 to 147 °C. In addition, in data set [1], the Ki is 0.126 µM. Moreover, the Ki in [2] is 1 µM. Further, in data set [3], the Ki was 0.126 µM. In [5], the EC50 is 0.0794 µM. This compound gave an EC50 in data set [4] of 0.501 µM.

`CC(C)CCSc1c[nH]nc1C1CN2CCC1CC2` (stereo not drawn) [Compound 49H, 3-[4-(3-Methyl-butylsulfanyl)-1H-pyrazol-3-yl]-1-azabicyclo[2.2.2]octane] had a melting point of 157 to 159 °C. For the same compound, the Ki in data set [1] is 0.0398 µM. The Ki in data set [2] is 0.158 µM. Also, the Ki in data set [3] was 0.0316 µM. For the same compound, in [5], the EC50 is 0.0501 µM. Moreover, the EC50 in [4] was more than 10 µM.

For `CCCOc1c[nH]nc1C1CN2CCC1CC2` (stereo not drawn) [Compound 52B, 3-(4-Propoxy-1H-pyrazol-3-yl)-1-azabicyclo[2.2.2]octane], the Ki in [6] was 0.316 µM; in data set [1], 0.126 µM; in data set [2] it was 0.631 µM; in data set [3], 0.0631 µM; in data set [9], 1.26 µM. The values for the Kb in data set [7] and in data set [8] were more than 1 µM and 0.0251 µM, respectively. Besides, the EC50 is more than 1 µM in [7], more than 1 µM in [8], 0.00794 µM in [5] and 0.1 µM in data set [4].

`CCCCCSc1nc[nH]c1C1=CCCN(C)C1` [Compound 76A, 3-(5-Pentylsulfanyl-3H-imidazol-4-yl)-1,2,5,6-tetrahydro-1-methylpyridine]: the Ki was 0.794 µM in data set [6] (setting [13]); 0.316 µM in [1]; 2.51 µM in [2]; 0.631 µM in data set [3] (setting [10]); 5.01 µM in [9] (setting [15]). Besides, the Kb in [7] and in data set [8] (setting [14]) was more than 1 µM in each case. Besides, the EC50 in data set [7] was more than 1 µM; in [8], more than 1 µM; in [5] (setting [12]) it was 0.126 µM; in data set [4] (setting [11]), 7.94 µM.

For the compound `CCCCCCSc1nc[nH]c1C1=CCCN(C)C1` [Compound 76B, 3-(5-Hexylsulfanyl-3H-imidazol-4-yl)-1,2,5,6-tetrahydro-1-methylpyridine], the Ki is 2.51 µM in data set [6] (setting [13]); 0.501 µM in [1]; 3.98 µM in data set [2]; 1 µM in data set [3] (setting [10]); 6.31 µM in [9] (setting [15]). For the same compound, the Kb in [7] and in [8] (setting [14]) was more than 1 µM in each case. Moreover, the EC50 in data set [7] is more than 1 µM; in data set [8], more than 1 µM; in [5] (setting [12]) it was 0.0794 µM; in [4] (setting [11]), 1 µM.

What is called melting point is the temperature of the solid-liquid transition.
